Results from patent publication US8003785B2 (Takeda Pharmaceutical Company Limited, priority 2008, dated 2011).
pIC50: −log10 of the molar value.

molecular target: T1, PLK1 (Homo sapiens, UniProt P53350); assay: Biochemical Characterization Assay: HTRF kinase assay, GST-PLK1 phosphorylation of GST-p53; details: GST-PLK1, GST-p53 substrate, ATP
T1 construct: Full-length, active GST-PLK1 is purified from Sf9 insect cells; made in house; host or cells: Sf9 insect cells
Method: Biochemical Characterization Assay
Full-length, active GST-PLK1 is purified from Sf9 insect cells, and full-length GST-p53 is purified from E. coli. Anti-phospho p53 antibody is from Cell Signaling Technology. Europium-conjugated anti-rabbit antibody is from PerkinElmer Life and Analytical Sciences. APC-conjugated anti-GST antibody is from Prozyme.
Six microliters of GST-PLK1 (3 ug/mL) in Kinase Assay Buffer are then added and the solution incubated at 37° C. for 35 minutes. Six microliters of solution containing 43 mM EDTA to stop the reaction and a 1:600 dilution of anti-phospho-p53 antibody in 20 mM HEPES pH 7, 50 mM NaCl, and 0.5 mg/mL BSA (Antibody Binding Buffer) are added and the solution incubated at 37° C. for 30 minutes. […] The HTRF signal is read on an Envision reader from PerkinElmer Life and Analytical Sciences.

T1 sequence (P53350 whole entry): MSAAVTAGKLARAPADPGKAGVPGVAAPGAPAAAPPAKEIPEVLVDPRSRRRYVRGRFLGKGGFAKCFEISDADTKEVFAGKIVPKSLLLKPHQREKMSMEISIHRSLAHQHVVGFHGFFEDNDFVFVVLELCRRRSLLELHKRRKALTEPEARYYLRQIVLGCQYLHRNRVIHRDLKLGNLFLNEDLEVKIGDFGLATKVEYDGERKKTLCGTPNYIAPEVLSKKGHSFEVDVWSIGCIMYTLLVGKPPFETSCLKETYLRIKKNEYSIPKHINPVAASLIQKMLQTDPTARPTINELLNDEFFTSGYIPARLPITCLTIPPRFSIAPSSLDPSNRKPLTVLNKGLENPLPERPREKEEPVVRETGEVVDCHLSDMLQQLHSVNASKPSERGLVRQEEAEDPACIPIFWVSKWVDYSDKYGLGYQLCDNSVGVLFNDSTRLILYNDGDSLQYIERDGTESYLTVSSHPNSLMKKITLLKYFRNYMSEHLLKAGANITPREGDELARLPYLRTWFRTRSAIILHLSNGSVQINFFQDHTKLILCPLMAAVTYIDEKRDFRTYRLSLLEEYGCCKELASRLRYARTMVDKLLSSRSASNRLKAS

SMILES	pIC50
COc1cc(C(=O)NCCc2ccc3c(c2)OCO3)ccc1Nc1ncc2c(n1)N(C1CCCC1)CC(F)(F)C(=O)N2C [Example I-43, N-(2-benzo[1,3]dioxol-5-yl-ethyl)-4-(9-cyclopentyl-7,7-difluoro-5-methyl-6-oxo-6,7,8,9-tetrahydro-5H-pyrimido[4,5-b][1,4]diazepin-2-ylamino)-3-methoxy-benzamide]	6.30 to 7.29
COc1cc(C(=O)N[C@H]2CCC[C@H]2C(N)=O)ccc1Nc1ncc2c(n1)N(C1CCCC1)CC(F)(F)C(=O)N2C [Example I-44, N-[(1S,2R)-(2-carbamoyl-cyclopentyl)]-4-(9-cyclopentyl-7,7-difluoro-5-methyl-6-oxo-6,7,8,9-tetrahydro-5H-pyrimido[4,5-b][1,4]diazepin-2-ylamino)-3-methoxy-benzamide]	7.30 to 9.00
COc1cc(C(=O)NCCN2CCNCC2)ccc1Nc1ncc2c(n1)N(C1CCCC1)CC(F)(F)C(=O)N2C [Example I-49, 4-(9-cyclopentyl-7,7-difluoro-5-methyl-6-oxo-6,7,8,9-tetrahydro-5H-pyrimido[4,5-b][1,4]diazepin-2-ylamino)-3-methoxy-N-(2-piperazin-1-yl-ethyl)-benzamide]	7.30 to 9.00
COc1cc(C(=O)NCCc2c[nH]c3ccccc23)ccc1Nc1ncc2c(n1)N(C1CCCC1)CC(F)(F)C(=O)N2C [Example I-51, 4-(9-cyclopentyl-7,7-difluoro-5-methyl-6-oxo-6,7,8,9-tetrahydro-5H-pyrimido[4,5-b][1,4]diazepin-2-ylamino)-N-[2-(1H-indol-3-yl)-ethyl]-3-methoxy-benzamide]	6.30 to 7.29
COc1cc(C(=O)NCCN(C)C)ccc1Nc1ncc2c(n1)N(C1CCCC1)CC(F)(F)C(=O)N2C [Example I-52, 4-(9-cyclopentyl-7,7-difluoro-5-methyl-6-oxo-6,7,8,9-tetrahydro-5H-pyrimido[4,5-b][1,4]diazepin-2-ylamino)-N-(2-dimethylamino-ethyl)-3-methoxy-benzamide]	7.30 to 9.00
COc1cc(C(=O)NCCCNC2CCCCC2)ccc1Nc1ncc2c(n1)N(C1CCCC1)CC(F)(F)C(=O)N2C [Example I-53, N-(3-cyclohexylamino-propyl)-4-(9-cyclopentyl-7,7-difluoro-5-methyl-6-oxo-6,7,8,9-tetrahydro-5H-pyrimido[4,5-b][1,4]diazepin-2-ylamino)-3-methoxy-benzamide]	7.30 to 9.00
COc1cc(C(=O)NCCCn2ccnc2)ccc1Nc1ncc2c(n1)N(C1CCCC1)CC(F)(F)C(=O)N2C [Example I-61, 4-(9-cyclopentyl-7,7-difluoro-5-methyl-6-oxo-6,7,8,9-tetrahydro-5H-pyrimido[4,5-b][1,4]diazepin-2-ylamino)-N-(3-imidazol-1-yl-propyl)-3-methoxy-benzamide]	7.30 to 9.00
COc1cc(C(=O)NC2CCN(C(C)C)CC2)ccc1Nc1ncc2c(n1)N(C1CCCC1)CC(F)(F)C(=O)N2C [Example I-64, 4-(9-cyclopentyl-7,7-difluoro-5-methyl-6-oxo-6,7,8,9-tetrahydro-5H-pyrimido[4,5-b][1,4]diazepin-2-ylamino)-N-(1-isopropyl-piperidin-4-yl)-3-methoxy-benzamide]	7.30 to 9.00
COc1cc(C(=O)NC2CCN(C3CC3)CC2)ccc1Nc1ncc2c(n1)N(C1CCCC1)CC(F)(F)C(=O)N2C [Example I-66, 4-(9-cyclopentyl-7,7-difluoro-5-methyl-6-oxo-6,7,8,9-tetrahydro-5H-pyrimido[4,5-b][1,4]diazepin-2-ylamino)-N-(1-cyclopropyl-piperidin-4-yl)-3-methoxy-benzamide]	7.30 to 9.00
COc1cc(C(=O)N[C@H]2CC[C@@H](O)CC2)ccc1Nc1ncc2c(n1)N(C1CCCC1)CC(F)(F)C(=O)N2C [Example I-68, cis-4-(9-cyclopentyl-7,7-difluoro-5-methyl-6-oxo-6,7,8,9-tetrahydro-5H-pyrimido[4,5-b][1,4]diazepin-2-ylamino)-N-(4-hydroxy-cyclohexyl)-3-methoxy-benzamide]	7.30 to 9.00
COc1cc(C(=O)N[C@H]2CC[C@H](O)CC2)ccc1Nc1ncc2c(n1)N(C1CCCC1)CC(F)(F)C(=O)N2C [Example I-69, trans-4-(9-cyclopentyl-7,7-difluoro-5-methyl-6-oxo-6,7,8,9-tetrahydro-5H-pyrimido[4,5-b][1,4]diazepin-2-ylamino)-N-(4-hydroxy-cyclohexyl)-3-methoxy-benzamide]	7.30 to 9.00

Further lines, results first:

pIC50	SMILES
7.30 to 9.00	CCOCCNC(=O)c1ccc(Nc2ncc3c(n2)N(C2CCCC2)CC(F)(F)C(=O)N3C)c(OC)c1 [Example I-40, 4-(9-cyclopentyl-7,7-difluoro-5-methyl-6-oxo-6,7,8,9-tetrahydro-5H-pyrimido[4,5-b][1,4]diazepin-2-ylamino)-N-(2-ethoxy-ethyl)-3-methoxy-benzamide]
7.30 to 9.00	COc1cc(C(=O)NCCCO)ccc1Nc1ncc2c(n1)N(C1CCCC1)CC(F)(F)C(=O)N2C [Example I-41, 4-(9-cyclopentyl-7,7-difluoro-5-methyl-6-oxo-6,7,8,9-tetrahydro-5H-pyrimido[4,5-b][1,4]diazepin-2-ylamino)-N-(3-hydroxy-propyl)-3-methoxy-benzamide]
7.30 to 9.00	COc1cc(C(=O)NCc2cc(Cl)cc(Cl)c2)ccc1Nc1ncc2c(n1)N(C1CCCC1)CC(F)(F)C(=O)N2C [Example I-42, 4-(9-cyclopentyl-7,7-difluoro-5-methyl-6-oxo-6,7,8,9-tetrahydro-5H-pyrimido[4,5-b][1,4]diazepin-2-ylamino)-N-(3,5-dichloro-benzyl)-3-methoxy-benzamide]
7.30 to 9.00	COc1cc(C(=O)NCCN2CCCC2)ccc1Nc1ncc2c(n1)N(C1CCCC1)CC(F)(F)C(=O)N2C [Example I-45, 4-(9-cyclopentyl-7,7-difluoro-5-methyl-6-oxo-6,7,8,9-tetrahydro-5H-pyrimido[4,5-b][1,4]diazepin-2-ylamino)-3-methoxy-N-(2-pyrrolidin-1-yl-ethyl)-benzamide]
7.30 to 9.00	COc1cc(C(=O)NCCCNC(C)C)ccc1Nc1ncc2c(n1)N(C1CCCC1)CC(F)(F)C(=O)N2C [Example I-46, 4-(9-cyclopentyl-7,7-difluoro-5-methyl-6-oxo-6,7,8,9-tetrahydro-5H-pyrimido[4,5-b][1,4]diazepin-2-ylamino)-N-(3-isopropylamino-propyl)-3-methoxy-benzamide]
7.30 to 9.00	COc1cc(C(=O)NCCN2CCN(C)CC2)ccc1Nc1ncc2c(n1)N(C1CCCC1)CC(F)(F)C(=O)N2C [Example I-47, 4-(9-cyclopentyl-7,7-difluoro-5-methyl-6-oxo-6,7,8,9-tetrahydro-5H-pyrimido[4,5-b][1,4]diazepin-2-ylamino)-3-methoxy-N-[2-(4-methyl-piperazin-1-yl)-ethyl]-benzamide]
7.30 to 9.00	COc1cc(C(=O)NCCN)ccc1Nc1ncc2c(n1)N(C1CCCC1)CC(F)(F)C(=O)N2C [Example I-48, N-(2-amino-ethyl)-4-(9-cyclopentyl-7,7-difluoro-5-methyl-6-oxo-6,7,8,9-tetrahydro-5H-pyrimido[4,5-b][1,4]diazepin-2-ylamino)-3-methoxy-benzamide]
7.30 to 9.00	COc1cc(C(=O)NC2CC3CCC(C2)N3C)ccc1Nc1ncc2c(n1)N(C1CCCC1)CC(F)(F)C(=O)N2C (stereo not drawn) [Example I-50, 4-(9-cyclopentyl-7,7-difluoro-5-methyl-6-oxo-6,7,8,9-tetrahydro-5H-pyrimido[4,5-b][1,4]diazepin-2-ylamino)-3-methoxy-N-(8-methyl-8-aza-bicyclo[3.2.1]oct-3-yl)-benzamide]
7.30 to 9.00	COc1cc(C(=O)NCC(C)(C)CN(C)C)ccc1Nc1ncc2c(n1)N(C1CCCC1)CC(F)(F)C(=O)N2C [Example I-60, 4-(9-cyclopentyl-7,7-difluoro-5-methyl-6-oxo-6,7,8,9-tetrahydro-5H-pyrimido[4,5-b][1,4]diazepin-2-ylamino)-N-(3-dimethylamino-2,2-dimethyl-propyl)-3-methoxy-benzamide]
7.30 to 9.00	COc1cc(C(=O)NC2CCN(c3ccncc3)CC2)ccc1Nc1ncc2c(n1)N(C1CCCC1)CC(F)(F)C(=O)N2C [Example I-62, 4-(9-cyclopentyl-7,7-difluoro-5-methyl-6-oxo-6,7,8,9-tetrahydro-5H-pyrimido[4,5-b][1,4]diazepin-2-ylamino)-3-methoxy-N-(3,4,5,6-tetrahydro-2H-[1,4′]bipyridinyl-4-yl)-benzamide]
7.30 to 9.00	COc1cc(C(=O)NC2CCN(C3CCCC3)CC2)ccc1Nc1ncc2c(n1)N(C1CCCC1)CC(F)(F)C(=O)N2C [Example I-63, 4-(9-cyclopentyl-7,7-difluoro-5-methyl-6-oxo-6,7,8,9-tetrahydro-5H-pyrimido[4,5-b][1,4]diazepin-2-ylamino)-N-(1-cyclopentyl-piperidin-4-yl)-3-methoxy-benzamide]
7.30 to 9.00	COc1cc(C(=O)NC2CC(C)(C)NC(C)(C)C2)ccc1Nc1ncc2c(n1)N(C1CCCC1)CC(F)(F)C(=O)N2C [Example I-65, 4-(9-cyclopentyl-7,7-difluoro-5-methyl-6-oxo-6,7,8,9-tetrahydro-5H-pyrimido[4,5-b][1,4]diazepin-2-ylamino)-3-methoxy-N-(2,2,6,6-tetramethyl-piperidin-4-yl)-benzamide]
7.30 to 9.00	CCN1CCC(NC(=O)c2ccc(Nc3ncc4c(n3)N(C3CCCC3)CC(F)(F)C(=O)N4C)c(OC)c2)CC1 [Example I-67, 4-(9-cyclopentyl-7,7-difluoro-5-methyl-6-oxo-6,7,8,9-tetrahydro-5H-pyrimido[4,5-b][1,4]diazepin-2-ylamino)-N-(1-ethyl-piperidin-4-yl)-3-methoxy-benzamide]
